In patent US20240018470A1, “METHOD OF MANIPULATING PLURIPOTENCY IN CELLS” (YALE UNIVERSITY, priority 2022, published 2024):

Key:
[1] = test system: animal pole cells (prospective ectoderm); experiment: Intracellular Vm recordings in animal pole cells; assay type: in vivo, Xenopus tropicalis; conditions: stage 10 (gastrulation onset), animal pole, MO injected embryos
From the text: For recordings, devitellinized, stage 10 kcnh6 or control MO injected embryos were mounted into non-toxic clay with their animal pole exposed and covered with 1/9×MR. To investigate the resting potential, animal pole cells were impaled with a high-impedance (˜70 Me), sharp microelectrode filled with 3 M KCl for intracellular recordings. The recordings were made using an Axon 200B amplifier and digitized using a Digidata 1320 digitizer. Jclamp software for Windows was used in current clamp mode. All electrodes were zeroed just before entry into the cells.
For the series of intracellular recordings in high K^+ and choline treated embryos, stage 8-9 embryos were impaled similarly with an electrode of […]. These recordings were made using a HEKA EPC10 amplifier. The present study used HEKA PatchMaster v2x67 software for Windows. […]
In experiments where embryos were evaluated for phenotypes and scored (gastrulation, left-right patterning, in situ hybridizations) the present study carried out three to five biological replicates and Fisher's exact test to evaluate statistical significance. […] For the calcium transient analyses, data was collected from three to five embryos in each experiment in three independent experiments, and statistical analyses on GCaMP/mCherry fluorescence intensity as well as Ca^2+ transient area were performed using student's t-test. […]

[2] = test system: animal pole of stage 10 embryos; experiment: Calcium imaging (GCaMP6/mCherry) of the animal pole; assay type: in vivo, Xenopus tropicalis; conditions: stage 10, 20 s time lapse
Protocol: GCaMP6 and mCherry mRNAs were mixed and injected into embryos at the one-cell stage. Half of these embryos were then injected with kcnh6 MO and the other half with control MO, still at the one-cell stage. Embryos were transferred at stage 10 into the round wells of a press-to-seal silicone isolator (Sigma 53685) mounted between two cover slips in 2% Methylcellulose- 1/9×MR. GcaMP6 and mCherry fluorescence was then captured for 20s (1 frame per second) via time lapse in the whole animal pole of each embryo with a 20× objective of an LSM710 confocal microscope using identical acquisition settings across Control MO and kcnh6 MO embryos. […] However, all embryos did display transient increases in GcaMP6 fluorescence, varying in intensity and spreading to multiple cells. The frames of each recording were sorted to identify the calcium transient peak (in area), and GcAMP6 fluorescence intensity was quantified at peak as a ratio to mCherry in mCherry+ cells. The maximum Ca′ transient area was calculated by demarcating in Fuji the GCaMP6(+) vs GcaMP6(−) area of the animal pole at transient peak. […]
In experiments where embryos were evaluated for phenotypes and scored (gastrulation, left-right patterning, in situ hybridizations) the present study carried out three to five biological replicates and Fisher's exact test to evaluate statistical significance. […]

kcnh6 MO: kcnh6 translation blocking morpholino oligonucleotide, 5′-GGTCCTCGAAGTTTAGGATAAACAT-3′, SEQ ID NO:1 (all phosphorodiamidate morpholino (PMO))
Vm [1]: −21.8±4.6 mV | animal pole area simultaneously affected by Ca^2+ transients, average [2]: 71±11% | animal pole area with simultaneous calcium increases in most embryos [2]: > 90%
